From patent publication US20250127857A1, “A COMPOSITION COMPRISING IL-36 AND/OR IL-18 FOR USE IN TREATING OCULAR DISORDERS” (THE PROVOST, FELLOWS, FOUNDATION SCHOLARS, & THE OTHER …, priority 2021, published 2025)

How the values were obtained:
VEGF = test: Retinal VEGF ELISA in JR5558 mice; format: in vivo, mouse; settings: JR5558 mice 3 weeks old, 100 μg/kg i.p. on 4 consecutive days, retinas isolated day 8
Protocol: FIG. 14 illustrates IL-18 can inhibit VEGF secretion in vivo and in vitro, wherein JR5558 mice at 3 weeks (A) were injected (i.p.) with saline (0 μg/kg) or IL-18 (100 μg/kg) on 4 consecutive days (day 1-4), wherein retinas were isolated on day 8 and VEGF concentration in protein lysates was determined using an appropriate ELISA, wherein data are presented as mean±SEM (n=4-5 animals per each treatment group) and expressed as pg of VEGF per mg of total retinal protein as measured by the BCA assay, *p<0.05 by one-way ANOVA with Tukey post test compared to saline controls; (B) is primary human foetal RPE (hfRPE) cells were treated with control medium (0 ng/ml) or a single dose of IL-18 (1000 ng/ml) for 1 to 72 hours, wherein VEGF concentration in the cell-free supernatants was measured at each time point, wherein rate of VEGF secretion was calculated from the slope of linear regression of VEGF concentration (pg/ml) against time (hours) (C), wherein data are presented as mean±SEM and represent a single experiment carried out in triplicate *p<0.05, ***p<0.001 by Student's t test compared to control at each time point;

[1] = test system: human ocular choroidal fibroblasts (HOCFs); test: Activation of human ocular choroidal fibroblasts (vimentin/phalloidin staining); format: cell-based; settings: IL-18 increasing doses, 8 h
Protocol: FIG. 20 illustrates IL-18 activates human ocular choroidal fibroblasts and inhibits VEGF secretion, wherein (A) is human ocular choroidal fibroblast (HOCFs) treated with IL-18 at increasing doses for 8 h, wherein cells were fixed and stained with antibody targeting intermediate filament vimentin (red), Hoechst (blue) and phalloidin (green); (B) is HOCFs treated with IL-18 (100 ng/ml) over 60 mins and immunoblotted for phospho-ERK and phospo-p65 with B-actin and GAPDH as controls; (C) is HOCFs treated with IL-18 (100 ng/ml) over 24 h as indicated, wherein cells were analysed for VEGF expression by qPCR (D) is HOCFs treated with 10, 100 or 1000 ng/ml of IL-18 as indicated over 48 h and cell death was analysed by LDH assay;

occludin = test: Occludin expression in HRMEC (qPCR and immunoblotting); format: cell-based, human
Protocol: FIG. 18 illustrates IL-18 drives expression of tight junction protein occludin and inhibits VEGF depletion of occluding, wherein HRMECS were treated with either VEGF, IL-18 or IL-1α for the timepoints indicated (top panel) and cells were prepared for RNA isolation and qPCR with expression of occluding measured, wherein HRMECs were treated with VEGF, IL-18 or IL-1 or combinations of these cytokines and cells were prepared for immunoblotting for expression of occludin and b-actin (lower panels);
Following transfer, membranes were blocked by incubating in 5% non-fat dried milk (Marvel) in TBS-T for 1 hour at room temperature whilst shaking. Membranes were incubated with primary antibody diluted in either 5% Marvel or BSA, depending on antibody specification, overnight at 4° C. with gentle agitation. Primary antibody was recovered and stored at −20. Membranes were washed three times in TBS-T for 5 minutes and membranes were incubated with secondary antibody, diluted in 5% Marvel, for 1 hour at room temperature. Secondary antibody was removed and discarded, and excess secondary was removed from the membranes by three 5-minute washes in TBS-T.
All RT-PCR assays were carried out using the SensiFAST SYBR Hi-ROX Kit (Bioline) with primers designed using Primer-BLAST (NCBI). For each target a master-mix comprising of 4 μl SYBR Green mix, 0.5 μl of Forward primer (4 μM) and 0.5 μl of Reverse primer (4 μM) along and 3 μl of RNAse free H2O was prepared and mixed thoroughly by vortexing. 8 μl of master-mix was added to each well of a 0.1 mL MicroAMP® Fast 96-well Reaction Plate (Applied Biosystems), along with 2 μl of cDNA and sealed using Optical adhesive film (Applied Biosystems) and spun down for 30 seconds in a centrifuge fitted with microplate rotor (Eppendorf) before running. Plate were run using a QuantStudio 3 real-time PCR System (Applied Biosystems) or the StepOnePlus Real-Time PCR System (Applied Biosystems), with run conditions set as: 50° C. for 2 mins, 95° C. for 10 minutes, 40 cycles of 95° C. for 15 seconds then 60° C. for 1 minute. To assess the quality of Primers a melt-curve stage was added: 95° C. for 1 second, 60° C. for 20 seconds, 95° C. for 1 second. Data were analysed using the QuantStudio™ Design & Analysis software (Applied Biosystems) and using the comparative Ct (ΔΔCt) method where test samples were normalised to endogenous control (β-Actin) followed by normalising the ΔCt of test samples to sample control (untreated sample), then calculating 2^−ΔΔCt to find the relative fold change of test samples over sample control.

bone marrow derived MSCs = test: Bone marrow derived mesenchymal stem cell activation (confocal microscopy); format: cell-based, mouse; settings: IL-18 250 ng/ml, 8 h
Protocol: FIG. 21 illustrates IL-18 activates bone marrow derived mesenchymal stem cells, wherein bone marrow derived MSC's were treated with IL-18 at 250 ng/ml for 8 h and images using confocal microscopy, wherein cells were stained with phalloidin for F-actin, vimentin, smooth muscle actin (SMA) and collagen 1;
The femurs from mice were isolated and, using a 20 ml syringe, the bones were flushed with DMEM into a cell culture dish. The flushings were centrifuged for 5 minutes at 1000 rpm. The supernatant was poured off and resuspended in 1 ml of 15% FBS and aMEM media, and filtered through a 70 um nylon mesh into a 50 ml captube. A further 5 ml of 15% FBS and aMEM were added through the mesh tube into the same 50 ml cap tube, and plated in a TC coated dish and cultured in an incubator for 5 days. On Day 5, the dish was washed with PBS 3 times (using PBS with no magnesium or calcium),trypsinized and the trypsin pipetted onto the plate to break up the colonies. 10mis of 10% FBS and DMEM were added and the cells collected in a 50 ml cap tube and this process was repeated once more, centrifuged for 5 mins at 1000 rpm, supernatant poured off, cells resuspended in 1 ml of DMEM and 20% FBS, and plated in a T75 and fed every second day until cells were confluent. When cells were confluent, they were split 1 in 3.

[2] = test system: laser induced CNV in WT mice; test: Mesenchymal cell infiltration/activation after laser induced CNV, 3 days; format: in vivo, mouse
Protocol: (§1) FIG. 22 illustrates increased mesenchymal cell infiltration/activation in animals injected with IL-18 intrperitoneally, wherein WT mice underwent laser induced CNV and were injected IP with IL-18 (100 ug/kg), wherein 3 days later eyes were enucleated, flatmounts were stained with F4/80, vimentin and isolectin and imaged by confocal microscopy;
as §1, with “23” for “22”, “intra-vitreally,” for “intrperitoneally,”, “intravitreally” for “IP”, “(0.3ng/eye),” for “(100 ug/kg),”

With “IL-18: recombinant human IL-18 (SB-485232; GSK)” the “VEGF levels in the retinas” value (VEGF) was “significantly decreased”, the “HOCF activation / morphology” value [1] was “activates HOCFs causing them to change morphology” and the “rescue of VEGF mediated occludin inhibition” value (occludin; combination with VEGF, immunoblotting) was “can rescue VEGF inhibition of occluding”. The “expression of tight junction protein occludin” value (occludin; single cytokine) was “increased expression of this tight junction protein”, the “appearance of vimentin and SMA in MSCs” value (bone marrow derived MSCs) was “strong effect on the appearance of vimentin and SMA” and the “collagen in MSCs” value (bone marrow derived MSCs) was “increased collagen in MSCs”. The “vimentin staining at CNV lesion” value ([2]; IL-18 0.3ng/eye intravitreally) was “driving vimentin positive cells to encapsulate the neovascular lesion” and the “vimentin staining at CNV lesion” value ([2]; IL-18 100 ug/kg intra-peritoneally) was “increased vimentin”.
